What was measured:
Conditions in all cases: 72 h
HepG2 [1] = assay: cell viability relative to DMSO; higher = less toxic
U2OS [2] = assay: as above
Vero E6 [3] = assay: as above
Caco-2 [4] = assay: as above
Calu-3 [5] = assay: as above
HepG2 [6] = assay: drug sensitivity score (DSS) for viability; higher = more toxic; extreme values may be limits of the assay
U2OS [7] = assay: as above
Vero E6 [8] = assay: as above
Caco-2 [9] = assay: as above
Calu-3 [10] = assay: as above
HepG2 [11] = assay: relative viability EC50 (midpoint between 100% and the lowest measured viability); higher = less toxic
U2OS [12] = assay: as above
Vero E6 [13] = assay: as above
Caco-2 [14] = assay: as above
Calu-3 [15] = assay: as above

Structure (SMILES) | cell viability (HepG2 [1]; 1 nM) | cell viability (HepG2 [1]; 10 nM) | cell viability (HepG2 [1]; 100 nM) | cell viability (HepG2 [1]; 1000 nM) | cell viability (HepG2 [1]; 10000 nM) | cell viability (U2OS [2]; 1 nM) | cell viability (U2OS [2]; 10 nM) | cell viability (U2OS [2]; 100 nM) | cell viability (U2OS [2]; 1000 nM) | cell viability (U2OS [2]; 10000 nM) | cell viability (Vero E6 [3]; 1 nM) | cell viability (Vero E6 [3]; 10 nM) | cell viability (Vero E6 [3]; 100 nM) | cell viability (Vero E6 [3]; 1000 nM) | cell viability (Vero E6 [3]; 10000 nM) | cell viability (Caco-2 [4]; 1 nM) | cell viability (Caco-2 [4]; 10 nM) | cell viability (Caco-2 [4]; 100 nM) | cell viability (Caco-2 [4]; 1000 nM) | cell viability (Caco-2 [4]; 10000 nM) | cell viability (Calu-3 [5]; 1 nM) | cell viability (Calu-3 [5]; 10 nM) | cell viability (Calu-3 [5]; 100 nM) | cell viability (Calu-3 [5]; 1000 nM) | cell viability (Calu-3 [5]; 10000 nM) | drug sensitivity score (HepG2 [6]) | drug sensitivity score (U2OS [7]) | drug sensitivity score (Vero E6 [8]) | drug sensitivity score (Caco-2 [9]) | drug sensitivity score (Calu-3 [10]) | relative viability EC50 (HepG2 [11]) | relative viability EC50 (U2OS [12]) | relative viability EC50 (Vero E6 [13]) | relative viability EC50 (Caco-2 [14]) | relative viability EC50 (Calu-3 [15])
Ic1cc(-c2ccccc2)ncn1 [4-iodo-6-phenylpyrimidine] | 100% | 107% | 96.8% | 105% | 98.8% | 102% | 97.2% | 102% | 99.1% | 102% | 105% | 102% | 97.7% | 105% | 95.5% | 93.8% | 101% | 104% | 97.5% | 98% | 100% | 105% | 105% | 87.2% | 104% | 0 | 0 | 0 | 0 | 0 | > 10 µM | > 10 µM | > 10 µM | > 10 µM | > 10 µM
O=S(=O)(O)c1ccc(O)cc1 [4-phenolsulfonic-acid] | 104% | 92.3% | 116% | 105% | 97.8% | 100% | 104% | 97% | 97.6% | 101% | 100% | 95.7% | 92.6% | 100% | 94.5% | 102% | 101% | 98.4% | 103% | 98.4% | 102% | 103% | 104% | 95.1% | 97.1% | 0 | 0 | 0 | 0 | 0 | > 10 µM | > 10 µM | > 10 µM | > 10 µM | > 10 µM
CC(C)c1cccc2c1OC(C(C)C)C(=S)N2CC(=O)O (stereo not given) [AD-5467] | 93.6% | 97.2% | 98.5% | 98% | 96.6% | 102% | 98.5% | 98.9% | 96.5% | 98% | 95.7% | 102% | 93.5% | 99.3% | 95.1% | 91.3% | 96.9% | 91.2% | 91.9% | 96.4% | 104% | 106% | 92% | 91.1% | 107% | 0 | 0 | 0 | 0 | 0 | > 10 µM | > 10 µM | > 10 µM | > 10 µM | > 10 µM
CC(C)Oc1ccc2c(=O)c3cc(C(=O)O)ccc3oc2c1 [AH6809] | 96.6% | 97.1% | 91.5% | 93.6% | 94.5% | 104% | 105% | 107% | 102% | 95% | 96.5% | 102% | 95.3% | 89.8% | 98.9% | 97.6% | 100% | 93.2% | 93.6% | 85.2% | 112% | 111% | 96.9% | 103% | 104% | 0 | 0 | 0 | 0.3 | 0 | > 10 µM | > 10 µM | > 10 µM | > 10 µM | > 10 µM
CN(CC[C@@H](Oc1ccc(-c2ccccc2)cc1)c1ccc(F)cc1)CC(=O)O [ALX-5407] | 102% | 108% | 92.7% | 95.7% | 96.7% | 98.3% | 96.6% | 99% | 93.8% | 98.7% | 101% | 99.1% | 97.7% | 100% | 96.4% | 105% | 98.9% | 102% | 94.8% | 95.6% | 103% | 85.9% | 98.6% | 98.3% | 104% | 0 | 0 | 0 | 0 | 0 | > 10 µM | > 10 µM | > 10 µM | > 10 µM | > 10 µM
CC(C)(C)c1ccc(S(=O)(=O)/C=C/C#N)cc1 [BAY-11-7085] | 96.7% | 100% | 98.7% | 85.2% | -0.4% | 101% | 99% | 102% | 89.1% | -0.4% | 92.7% | 95.9% | 91.8% | 90.3% | -0.3% | 101% | 82.2% | 83.6% | 91.8% | 37.8% | 105% | 103% | 96% | 97% | 49.8% | 8 | 7.4 | 7.1 | 4.8 | 3.1 | 2 µM | 2.26 µM | 2.35 µM | 2.1 µM | 2.69 µM
Cc1oc2nc3c(c(NC(=O)CN4CCCC4=O)c2c1C)CCCC3 [BCI-540] | 88.7% | 100% | 98.5% | 98% | 94.3% | 100% | 99.8% | 97.8% | 105% | 101% | 93.2% | 93.8% | 99.5% | 92.5% | 110% | 94.4% | 99.2% | 99.8% | 103% | 101% | 90.2% | 101% | 94.4% | 104% | 107% | 0 | 0 | 0 | 0 | 0 | > 10 µM | > 10 µM | > 10 µM | > 10 µM | > 10 µM
CC(C)(C)c1cc(O)c(C(C)(C)C)cc1O [BHQ] | 102% | 95.8% | 92.4% | 97.9% | 95.5% | 101% | 97.2% | 103% | 99.1% | 99.8% | 98.3% | 96% | 103% | 96.6% | 91.8% | 101% | 96.9% | 102% | 95.7% | 88.9% | 109% | 94% | 93.1% | 97.9% | 108% | 0 | 0 | 0 | 0.1 | 0 | > 10 µM | > 10 µM | > 10 µM | > 10 µM | > 10 µM
Cc1cc(C(=CNc2ccc(Cl)cc2)C(=O)Nc2ccc(Cl)cc2)on1 [CCMI] | 95.6% | 96.3% | 96.9% | 107% | 95.7% | 103% | 93.3% | 97.8% | 102% | 99.4% | 98.7% | 101% | 98.7% | 96.6% | 98.1% | 98.4% | 93% | 104% | 88% | 100% | 104% | 100% | 105% | 98.9% | 105% | 0 | 0 | 0 | 0 | 0 | > 10 µM | > 10 µM | > 10 µM | > 10 µM | > 10 µM
CCOC(=O)Nc1ccc2c(c1)N(C(=O)CN(CC)CC)c1ccccc1CC2 [CINPA-1] | 97.7% | 106% | 99.1% | 96.7% | 93.7% | 105% | 102% | 99.5% | 97.6% | 99.1% | 95.2% | 106% | 96.6% | 100% | 91% | 103% | 96.1% | 100% | 100% | 92.2% | 109% | 99.6% | 99.5% | 91.9% | 107% | 0 | 0 | 0 | 0 | 0 | > 10 µM | > 10 µM | > 10 µM | > 10 µM | > 10 µM
C=CC(=O)Nc1cccc(Nc2nc(Nc3ccc(Oc4ccnc(C(=O)NC)c4)cc3)ncc2F)c1 [CNX-774] | 98.6% | 104% | 110% | 91.4% | 31.8% | 92.4% | 111% | 98.3% | 83.9% | 32.9% | 98.1% | 98.1% | 103% | 90.7% | 26.9% | 98.7% | 105% | 103% | 90.4% | 30% | 92.8% | 102% | 99.6% | 96.3% | 86.6% | 5.2 | 6.2 | 5.6 | 5.5 | 0.4 | 2.15 µM | 1.58 µM | 2.14 µM | 2.07 µM | > 10 µM
CCCCNc1nc(N)c2[nH]c(=O)n(Cc3ccc(OCCN(C)C)nc3)c2n1 [DSR-6434] | 103% | 102% | 91% | 94.4% | 97.1% | 96.9% | 97.9% | 99% | 101% | 97% | 97.6% | 99.1% | 98.8% | 93.6% | 96.3% | 93.3% | 98.6% | 92.7% | 100% | 95.9% | 90.4% | 104% | 95.2% | 89.6% | 101% | 0 | 0 | 0 | 0 | 0 | > 10 µM | > 10 µM | > 10 µM | > 10 µM | > 10 µM

From the supplement of paper PMC13380429
